Reference: ChEMBL document CHEMBL3044779, “The action of herbicides on fatty acid biosynthesis and elongation in barley and cucumber” (Pest Manag Sci, 2010)
Calls of active or inactive are those of the source. The calls are words filed in the database; no cut-off is given here.

Key:
Hordeum vulgare [1] = assay: Inhibition of fatty acid synthesis in Hordeum vulgare (barley) using [14C]acetate assessed as [14C]-labeled 22C fatty acid level at 200 uM after 3 hr by liquid scintillation counting (reference value: 5.5 +/- 0.2%); type: functional; parameters: scale not given: the % may be the effect or the level left
Hordeum vulgare [2] = assay: (§1) Inhibition of fatty acid synthesis in Hordeum vulgare (barley) assessed as inhibition of [14C]acetate incoporation in total fatty acids at 200 uM measured as total disintegration per g of fresh weight after 3 hr by liquid scintillation counting (reference value: 5.7 +/- 0.5 dpm x 10^6 g'1 fresh wt); type: functional
Cucumis sativus [3] = assay: Inhibition of fatty acid synthesis in Cucumis sativus (cucumber) using [14C]malonate assessed as inhibition of [14C]-labeled 16C fatty acid production at 200 uM after 3 hr by liquid scintillation counting; type: functional, organism-based
Hordeum vulgare [4] = assay: Inhibition of fatty acid synthesis in Hordeum vulgare (barley) assessed as inhibition of [14C]malonate incoporation in total fatty acids at 200 uM measured after 3 hr by liquid scintillation counting; type: functional, organism-based
Cucumis sativus [5] = assay: Inhibition of fatty acid synthesis in Cucumis sativus (cucumber) using [14C]acetate assessed as [14C]-labeled 20C fatty acid level at 200 uM after 3 hr by liquid scintillation counting (reference value: 5.1 +/- 0.7%); type: functional; parameters: scale not given: the % may be the effect or the level left
Cucumis sativus [6] = assay: Inhibition of fatty acid synthesis in Cucumis sativus (cucumber) using [14C]acetate assessed as [14C]-labeled 22C fatty acid level at 200 uM after 3 hr by liquid scintillation counting (reference value: 17.9 +/- 2.5%); type: functional; parameters: scale not given: the % may be the effect or the level left
Hordeum vulgare [7] = assay: Inhibition of fatty acid synthesis in Hordeum vulgare (barley) using [14C]malonate assessed as inhibition of [14C]-labeled 16C fatty acid production at 200 uM after 3 hr by liquid scintillation counting; type: functional, organism-based
Cucumis sativus [8] = assay: Inhibition of fatty acid synthesis in Cucumis sativus (cucumber) using [14C]acetate assessed as [14C]-labeled 16C fatty acid level at 200 uM after 3 hr by liquid scintillation counting (reference value: 29.2 +/- 3.5%); type: functional; parameters: scale not given: the % may be the effect or the level left
Hordeum vulgare [9] = assay: Inhibition of fatty acid synthesis in Hordeum vulgare (barley) using [14C]malonate assessed as inhibition of [14C]-labeled 20C fatty acid production at 200 uM after 3 hr by liquid scintillation counting; type: functional, organism-based
Hordeum vulgare [10] = assay: Inhibition of fatty acid synthesis in Hordeum vulgare (barley) using [14C]acetate assessed as [14C]-labeled 16C fatty acid level at 200 uM after 3 hr by liquid scintillation counting (reference value: 29.5 +/- 1.3%); type: functional; parameters: scale not given: the % may be the effect or the level left
Hordeum vulgare [11] = assay: Inhibition of fatty acid synthesis in Hordeum vulgare (barley) using [14C]malonate assessed as inhibition of [14C]-labeled 22C fatty acid production at 200 uM after 3 hr by liquid scintillation counting; type: functional, organism-based
Cucumis sativus [12] = assay: Inhibition of fatty acid synthesis in Cucumis sativus (cucumber) using [14C]malonate assessed as inhibition of [14C]-labeled 24C fatty acid production at 200 uM after 3 hr by liquid scintillation counting; type: functional, organism-based
Cucumis sativus [13] = assay: Inhibition of fatty acid synthesis in Cucumis sativus (cucumber) using [14C]acetate assessed as [14C]-labeled 18C fatty acid level at 200 uM after 3 hr by liquid scintillation counting (reference value: 41.2 +/- 1.1%); type: functional; parameters: scale not given: the % may be the effect or the level left
Hordeum vulgare [14] = assay: Inhibition of fatty acid synthesis in Hordeum vulgare (barley) using [14C]malonate assessed as inhibition of [14C]-labeled 24C fatty acid production at 200 uM after 3 hr by liquid scintillation counting; type: functional, organism-based
Hordeum vulgare [15] = assay: Inhibition of fatty acid synthesis in Hordeum vulgare (barley) using [14C]acetate assessed as [14C]-labeled 20C fatty acid level at 200 uM after 3 hr by liquid scintillation counting (reference value: 4.7 +/- 1.6%); type: functional; parameters: scale not given: the % may be the effect or the level left
Cucumis sativus [16] = assay: as §1, with “Cucumis sativus (cucumber)” for “Hordeum vulgare (barley)”, “6.4” for “5.7”, “1.2” for “0.5”; type: functional
Hordeum vulgare [17] = assay: Inhibition of fatty acid synthesis in Hordeum vulgare (barley) using [14C]malonate assessed as inhibition of [14C]-labeled 18C fatty acid production at 200 uM after 3 hr by liquid scintillation counting; type: functional, organism-based
Hordeum vulgare [18] = assay: Inhibition of fatty acid synthesis in Hordeum vulgare (barley) using [14C]acetate assessed as [14C]-labeled 18C fatty acid level at 200 uM after 3 hr by liquid scintillation counting (reference value: 60.3 +/- 1.3%); type: functional; parameters: scale not given: the % may be the effect or the level left
Cucumis sativus [19] = assay: Inhibition of fatty acid synthesis in Cucumis sativus (cucumber) using [14C]malonate assessed as inhibition of [14C]-labeled 20C fatty acid production at 200 uM after 3 hr by liquid scintillation counting; type: functional, organism-based
Cucumis sativus [20] = assay: Inhibition of fatty acid synthesis in Cucumis sativus (cucumber) using [14C]acetate assessed as [14C]-labeled 24C fatty acid level at 200 uM after 3 hr by liquid scintillation counting (reference value: 6.5 +/- 1%); type: functional; parameters: scale not given: the % may be the effect or the level left
Cucumis sativus [21] = assay: Inhibition of fatty acid synthesis in Cucumis sativus (cucumber) using [14C]malonate assessed as inhibition of [14C]-labeled 18C fatty acid production at 200 uM after 3 hr by liquid scintillation counting; type: functional, organism-based
Cucumis sativus [22] = assay: Inhibition of fatty acid synthesis in Cucumis sativus (cucumber) using [14C]malonate assessed as inhibition of [14C]-labeled 22C fatty acid production at 200 uM after 3 hr by liquid scintillation counting; type: functional, organism-based
Cucumis sativus [23] = assay: Inhibition of fatty acid synthesis in Cucumis sativus (cucumber) assessed as inhibition of [14C]malonate incoporation in total fatty acids at 200 uM measured after 3 hr by liquid scintillation counting; type: functional, organism-based
Hordeum vulgare [24] = assay: Inhibition of fatty acid synthesis in Hordeum vulgare (barley) using [14C]malonate assessed as inhibition of [14C]-labeled 20C fatty acid production at 300 uM after 3 hr by liquid scintillation counting; type: functional, organism-based
Cucumis sativus [25] = assay: Inhibition of fatty acid synthesis in Cucumis sativus (cucumber) using [14C]acetate assessed as [14C]-labeled 20C fatty acid level at 300 uM after 3 hr by liquid scintillation counting (reference value: 5.1 +/- 0.7%); type: functional; parameters: scale not given: the % may be the effect or the level left
Cucumis sativus [26] = assay: as §1, with “Cucumis sativus (cucumber)” for “Hordeum vulgare (barley)”, “300” for “200”, “6.4” for “5.7”, “1.2” for “0.5”; type: functional
Cucumis sativus [27] = assay: Inhibition of fatty acid synthesis in Cucumis sativus (cucumber) using [14C]acetate assessed as [14C]-labeled 22C fatty acid level at 300 uM after 3 hr by liquid scintillation counting (reference value: 17.9 +/- 2.5%); type: functional; parameters: scale not given: the % may be the effect or the level left
Cucumis sativus [28] = assay: Inhibition of fatty acid synthesis in Cucumis sativus (cucumber) using [14C]malonate assessed as inhibition of [14C]-labeled 24C fatty acid production at 300 uM after 3 hr by liquid scintillation counting; type: functional, organism-based
Hordeum vulgare [29] = assay: Inhibition of fatty acid synthesis in Hordeum vulgare (barley) using [14C]acetate assessed as [14C]-labeled 20C fatty acid level at 300 uM after 3 hr by liquid scintillation counting (reference value: 4.7 +/- 1.6%); type: functional; parameters: scale not given: the % may be the effect or the level left
Cucumis sativus [30] = assay: Inhibition of fatty acid synthesis in Cucumis sativus (cucumber) using [14C]malonate assessed as inhibition of [14C]-labeled 18C fatty acid production at 300 uM after 3 hr by liquid scintillation counting; type: functional, organism-based
Hordeum vulgare [31] = assay: Inhibition of fatty acid synthesis in Hordeum vulgare (barley) using [14C]malonate assessed as inhibition of [14C]-labeled 24C fatty acid production at 300 uM after 3 hr by liquid scintillation counting; type: functional, organism-based
Hordeum vulgare [32] = assay: Inhibition of fatty acid synthesis in Hordeum vulgare (barley) using [14C]acetate assessed as [14C]-labeled 16C fatty acid level at 300 uM after 3 hr by liquid scintillation counting (reference value: 29.5 +/- 1.3%); type: functional; parameters: scale not given: the % may be the effect or the level left
Hordeum vulgare [33] = assay: Inhibition of fatty acid synthesis in Hordeum vulgare (barley) using [14C]acetate assessed as [14C]-labeled 18C fatty acid level at 300 uM after 3 hr by liquid scintillation counting (reference value: 60.3 +/- 1.3%); type: functional; parameters: scale not given: the % may be the effect or the level left
Cucumis sativus [34] = assay: Inhibition of fatty acid synthesis in Cucumis sativus (cucumber) using [14C]malonate assessed as inhibition of [14C]-labeled 16C fatty acid production at 300 uM after 3 hr by liquid scintillation counting; type: functional, organism-based
Cucumis sativus [35] = assay: Inhibition of fatty acid synthesis in Cucumis sativus (cucumber) using [14C]malonate assessed as inhibition of [14C]-labeled 20C fatty acid production at 300 uM after 3 hr by liquid scintillation counting; type: functional, organism-based
Cucumis sativus [36] = assay: Inhibition of fatty acid synthesis in Cucumis sativus (cucumber) using [14C]acetate assessed as [14C]-labeled 24C fatty acid level at 300 uM after 3 hr by liquid scintillation counting (reference value: 6.5 +/- 1%); type: functional; parameters: scale not given: the % may be the effect or the level left
Cucumis sativus [37] = assay: Inhibition of fatty acid synthesis in Cucumis sativus (cucumber) using [14C]acetate assessed as [14C]-labeled 16C fatty acid level at 300 uM after 3 hr by liquid scintillation counting (reference value: 29.2 +/- 3.5%); type: functional; parameters: scale not given: the % may be the effect or the level left
Hordeum vulgare [38] = assay: Inhibition of fatty acid synthesis in Hordeum vulgare (barley) using [14C]malonate assessed as inhibition of [14C]-labeled 18C fatty acid production at 300 uM after 3 hr by liquid scintillation counting; type: functional, organism-based
Hordeum vulgare [39] = assay: Inhibition of fatty acid synthesis in Hordeum vulgare (barley) assessed as inhibition of [14C]malonate incoporation in total fatty acids at 300 uM measured after 3 hr by liquid scintillation counting; type: functional, organism-based
Hordeum vulgare [40] = assay: Inhibition of fatty acid synthesis in Hordeum vulgare (barley) using [14C]malonate assessed as inhibition of [14C]-labeled 22C fatty acid production at 300 uM after 3 hr by liquid scintillation counting; type: functional, organism-based
Cucumis sativus [41] = assay: Inhibition of fatty acid synthesis in Cucumis sativus (cucumber) assessed as inhibition of [14C]malonate incoporation in total fatty acids at 300 uM measured after 3 hr by liquid scintillation counting; type: functional, organism-based
Hordeum vulgare [42] = assay: Inhibition of fatty acid synthesis in Hordeum vulgare (barley) using [14C]malonate assessed as inhibition of [14C]-labeled 16C fatty acid production at 300 uM after 3 hr by liquid scintillation counting; type: functional, organism-based
Hordeum vulgare [43] = assay: Inhibition of fatty acid synthesis in Hordeum vulgare (barley) assessed as inhibition of [14C]acetate incoporation in total fatty acids at 300 uM measured as total disintegration per g of fresh weight after 3 hr by liquid scintillation counting (reference value: 5.7 +/- 0.5 dpm x 10^6 g'1 fresh wt); type: functional
Hordeum vulgare [44] = assay: Inhibition of fatty acid synthesis in Hordeum vulgare (barley) using [14C]acetate assessed as [14C]-labeled 22C fatty acid level at 300 uM after 3 hr by liquid scintillation counting (reference value: 5.5 +/- 0.2%); type: functional; parameters: scale not given: the % may be the effect or the level left
Cucumis sativus [45] = assay: Inhibition of fatty acid synthesis in Cucumis sativus (cucumber) using [14C]acetate assessed as [14C]-labeled 18C fatty acid level at 300 uM after 3 hr by liquid scintillation counting (reference value: 41.2 +/- 1.1%); type: functional; parameters: scale not given: the % may be the effect or the level left
Cucumis sativus [46] = assay: Inhibition of fatty acid synthesis in Cucumis sativus (cucumber) using [14C]malonate assessed as inhibition of [14C]-labeled 22C fatty acid production at 300 uM after 3 hr by liquid scintillation counting; type: functional, organism-based

In the case of Cc1ccccc1CO[C@H]1C[C@]2(C(C)C)CC[C@@]1(C)O2 (relative stereo) [REL-CINMETHYLIN], the Activity (Hordeum vulgare [1]) is reported as 5.8%, the Activity (Hordeum vulgare [2]) is reported as 5.1 ×10⁶ dpm and the inhibition (Cucumis sativus [3]) is reported as “inactive”. For the same compound, the inhibition (Hordeum vulgare [4]) was “inactive”, the Activity (Cucumis sativus [5]) was 4.8% and the Activity (Cucumis sativus [6]) was 13.4%. The inhibition (Hordeum vulgare [7]) was “inactive”, the Activity (Cucumis sativus [8]) was 28.9% and the inhibition (Hordeum vulgare [9]) was “inactive”. The Activity (Hordeum vulgare [10]) was 20.9%, the inhibition (Hordeum vulgare [11]) was “inactive” and the inhibition (Cucumis sativus [12]) was “inactive”. The Activity (Cucumis sativus [13]) was 48.6%, the inhibition (Hordeum vulgare [14]) was “inactive” and the Activity (Hordeum vulgare [15]) was 5.7%. For the same compound, the Activity (Cucumis sativus [16]) was 8.4 ×10⁶ dpm, the inhibition (Hordeum vulgare [17]) was “inactive” and the Activity (Hordeum vulgare [18]) was 67.7%. The inhibition (Cucumis sativus [19]) was “inactive”, the Activity (Cucumis sativus [20]) was 4.2% and the inhibition (Cucumis sativus [21]) was “inactive”. The inhibition (Cucumis sativus [22]) was “inactive” and the inhibition (Cucumis sativus [23]) was “inactive”.

CN(C)C(=O)C(c1ccccc1)c1ccccc1 [DIPHENAMIDE] was tested, and the inhibition (Hordeum vulgare [24]) was “inactive”, the Activity (Cucumis sativus [25]) was 6.1% and the Activity (Cucumis sativus [26]) was 6.9 ×10⁶ dpm. For the same compound, the Activity (Cucumis sativus [27]) was 13.9%, the inhibition (Cucumis sativus [28]) was “inactive” and the Activity (Hordeum vulgare [29]) was 7.9%. The inhibition (Cucumis sativus [30]) was “inactive”, the inhibition (Hordeum vulgare [31]) was “inactive” and the Activity (Hordeum vulgare [32]) was 18.4%. The Activity (Hordeum vulgare [33]) was 66.1%, the inhibition (Cucumis sativus [34]) was “inactive” and the inhibition (Cucumis sativus [35]) was “inactive”. For the same compound, the Activity (Cucumis sativus [36]) was 5.1%, the Activity (Cucumis sativus [37]) was 26.8% and the inhibition (Hordeum vulgare [38]) was “inactive”. For the same compound, the inhibition (Hordeum vulgare [39]) was “inactive”, the inhibition (Hordeum vulgare [40]) was “inactive” and the inhibition (Cucumis sativus [41]) was “inactive”. For the same compound, the inhibition (Hordeum vulgare [42]) was “inactive”, the Activity (Hordeum vulgare [43]) was 4 ×10⁶ dpm and the Activity (Hordeum vulgare [44]) was 7.6%. For the same compound, the Activity (Cucumis sativus [45]) was 48.1% and the inhibition (Cucumis sativus [46]) was “inactive”.
